Measurements from BigSolDB 2.1.

Cc1ncc([N+](=O)[O-])n1CCO
solubility (mole fraction)
Conditions	in chloroform	in ethanol	in ethyl acetate	in isopropanol	in methanol	in n-butanol	in water
293.15 K	0.00128	0.00433	0.00299	0.00396	0.00641	0.00533	0.000872
297.55 K	0.0016	0.00596	0.00395	0.00462	0.0076	0.00576	–
298.45 K	–	–	–	–	–	–	0.00104
302.55 K	0.00226	0.00641	0.00495	0.00559	0.00925	0.00692	–
306.95 K	–	–	–	–	–	–	0.00146
307.55 K	0.00288	0.00763	0.00605	0.00615	0.0112	0.00914	–
308.65 K	–	–	–	–	–	–	0.00152
312.35 K	0.0036	0.00978	0.00713	0.00794	0.0138	0.0111	–
313.15 K	–	–	–	–	–	–	0.00181
317.85 K	0.00418	0.0121	0.00887	0.0102	0.017	0.0132	–
318.05 K	–	–	–	–	–	–	0.00216
322.35 K	–	0.0145	0.0121	0.0125	0.0201	0.0163	–
322.95 K	–	–	–	–	–	–	0.00265
